Laboratory results published in patent US20070093520A1, “Method of treatment of diarrhea-predominant irritable bowel syndrome in a subject” (priority 2005, published 2007).

System: diarrhea-predominant IBS subjects
Assay: 3007 Study: open-label 52-week safety study, adverse events and withdrawals
Conditions: Placebo/Cilansetron 2 mg

## Cc1nccn1C[C@H]1CCc2c(c3cccc4c3n2CCC4)C1=O [cilansetron, (R)-(−)-4,5,6,8,9,10-hexahydro-10-[(2-methyl-1H-imidazol-1-yl)methyl]-11H-pyrido-[3,2,1-jk]-carbazol-11-one]
  TEAE: Protein Urine Present: 1 (<1%) n (%)
  TEAE: Pruritus Ani: 1 (<1%) n (%)
  TEAE: Rectal Cramps: 0 n (%)
  TEAE: Rectal Disorder NOS: 1 (<1%) n (%)
  TEAE: Rectal Haemorrhage: 4 (1%) n (%)
  TEAE: Rectal Tenesmus: 2 (<1%) n (%)
  TEAE: Red Blood Cell Analyses: 0 n (%)
  TEAE: Red Blood Cells Urine: 1 (<1%) n (%)
  TEAE: Renal Bruit: 1 (<1%) n (%)
  TEAE: Renal Function Analyses: 3 (1%) n (%)
  TEAE: Reproductive Organ and Breast Histopathology Procedures: 0 n (%)
  TEAE: Respiratory Tract Infection NOS: 0 n (%)
  TEAE: Rheumatoid Arthritis: 1 (<1%) n (%)
  TEAE: Rheumatoid Arthritis Aggravated: 1 (<1%) n (%)
  TEAE: Rheumatoid Arthropathies: 2 (<1%) n (%)
  TEAE: Rhinoviral Infections: 10 (4%) n (%)
  TEAE: Rib Fracture: 0 n (%)
  TEAE: Road Traffic Accident: 0 n (%)
  TEAE: Rotator Cuff Syndrome: 1 (<1%) n (%)
  TEAE: Seizures and Seizure Disorders NEC: 0 n (%)
  TEAE: Sinus Headache: 0 n (%)
  TEAE: Sinusitis Acute NOS: 1 (<1%) n (%)
  TEAE: Sinusitis NOS: 13 (5%) n (%)
  TEAE: Site Specific Injuries NEC: 0 n (%)
  TEAE: Skeletal and Cardiac Muscle Analyses: 8 (3%) n (%)
  TEAE: Skin Fungal Infection NOS: 0 n (%)
  TEAE: Skin Infection NOS: 1 (<1%) n (%)
  TEAE: Skin Structures and Soft Tissue Infections: 2 (<1%) n (%)
  TEAE: Sleep Apnoea Syndrome: 2 (<1%) n (%)
  TEAE: Sleep Apnoeas: 2 (<1%) n (%)
  TEAE: Soft Tissue Disorders NEC: 0 n (%)
  TEAE: Somnolence: 1 (<1%) n (%)
  TEAE: Speech and Language Abnormalities: 1 (<1%) n (%)
  TEAE: Spinal Cord and Nerve Root Disorders NEC: 1 (<1%) n (%)
  TEAE: Spondylitic Myelopathy: 1 (<1%) n (%)
  TEAE: Spondyloarthropathies: 0 n (%)
  TEAE: Spondylosis: 0 n (%)
  TEAE: Staphylococcal Infection NOS: 0 n (%)
  TEAE: Staphylococcal Infections: 0 n (%)
  TEAE: Status Epilepticus: 0 n (%)
  TEAE: Stomach Discomfort: 1 (<1%) n (%)
  TEAE: Streptococcal Infection NOS: 0 n (%)
  TEAE: Streptococcal Infections: 3 (1%) n (%)
  TEAE: Stress Fracture: 0 n (%)
  TEAE: Temporomandibular Joint Disorder NOS: 0 n (%)
  TEAE: Tendon Disorders: 3 (1%) n (%)
  TEAE: Tendonitis: 2 (<1%) n (%)
  TEAE: Tension Headaches: 0 n (%)
  TEAE: Thoracic Cage Fractures and Dislocations: 0 n (%)
  TEAE: Tinea Cruris: 1 (<1%) n (%)
  TEAE: Tinea Infections: 1 (<1%) n (%)
  TEAE: Tinea Pedis: 0 n (%)
  TEAE: Tissue Enzyme Analyses NEC: 1 (<1%) n (%)
  TEAE: Tongue Coated: 0 n (%)
  TEAE: Tongue Signs and Symptoms: 0 n (%)
  TEAE: Tooth Abscess: 1 (<1%) n (%)
  TEAE: Tooth Disorder NOS: 0 n (%)
  TEAE: Tooth Impacted: 0 n (%)
  TEAE: Tooth Infection: 1 (<1%) n (%)
  TEAE: Toothache: 1 (<1%) n (%)
  TEAE: Total Number of Subjects with at Least One TEAE: 217 (78%) n (%)
  TEAE: Transient Global Amnesia: 0 n (%)
  TEAE: Tremor: 1 (<1%) n (%)
  TEAE: Tremor (Excl Congenital): 1 (<1%) n (%)
  TEAE: Trigger Finger: 1 (<1%) n (%)
  TEAE: Triglyceride Analyses: 4 (1%) n (%)
  TEAE: Umbilical Hernia NOS: 0 n (%)
  TEAE: Umbilical Hernias: 0 n (%)
  TEAE: Upper Limb Fractures and Dislocations: 1 (<1%) n (%)
  TEAE: Upper Respiratory Tract Infection NOS: 8 (3%) n (%)
  TEAE: Upper Respiratory Tract Infections - Pathogen Class Unspecified: 19 (7%) n (%)
  TEAE: Urinalysis NEC: 6 (2%) n (%)
  TEAE: Urinary Tract Infection NOS: 10 (4%) n (%)
  TEAE: Urinary Tract Infections: 12 (4%) n (%)
  TEAE: Urine Analysis Abnormal NOS: 0 n (%)
  TEAE: Urine Bilirubin Increased: 1 (<1%) n (%)
  TEAE: Urine Ketone Body Present: 2 (<1%) n (%)
  TEAE: Urine Leukocyte Esterase Positive: 2 (<1%) n (%)
  TEAE: Urobilin Urine Present: 0 n (%)
  TEAE: Vascular Auscultatory Investigations: 2 (<1%) n (%)
  TEAE: Vascular Tests NEC (Incl Blood Pressure): 2 (<1%) n (%)
  TEAE: Vasovagal Attack: 0 n (%)
  TEAE: Viral Infection NOS: 2 (<1%) n (%)
  TEAE: Viral Infections NEC: 8 (3%) n (%)
  TEAE: Vomiting NOS: 9 (3%) n (%)
  TEAE: Weight Decreased: 1 (<1%) n (%)
  TEAE: Weight Increased: 0 n (%)
  TEAE: White Blood Cell Analyses: 1 (<1%) n (%)
  TEAE: White Blood Cell Count Decreased: 0 n (%)
  TEAE: White Blood Cells Urine Positive: 0 n (%)
N=279
  TEAE leading to permanent discontinuation: Abdominal Distension: 2 (<1%) n (%)
  TEAE leading to permanent discontinuation: Abdominal Pain Aggravated: 0 n (%)
  TEAE leading to permanent discontinuation: Abdominal Pain Lower: 2 (<1%) n (%)
  TEAE leading to permanent discontinuation: Abdominal Pain NOS: 6 (2%) n (%)
  TEAE leading to permanent discontinuation: Abdominal Pain Upper: 3 (1%) n (%)
  TEAE leading to permanent discontinuation: Alanine Aminotransferase Increased: 0 n (%)
  TEAE leading to permanent discontinuation: Angina Pectoris: 0 n (%)
  TEAE leading to permanent discontinuation: Appendicitis: 0 n (%)
  TEAE leading to permanent discontinuation: Asthma Aggravated: 0 n (%)
  TEAE leading to permanent discontinuation: Asthma NOS: 0 n (%)
  TEAE leading to permanent discontinuation: Back Pain: 1 (<1%) n (%)
  TEAE leading to permanent discontinuation: Bladder Prolapse: 1 (<1%) n (%)
  TEAE leading to permanent discontinuation: Blood Bilirubin Increased: 0 n (%)
  TEAE leading to permanent discontinuation: Blood Pressure Increased: 0 n (%)
  TEAE leading to permanent discontinuation: Blood Urine Present: 0 n (%)
  TEAE leading to permanent discontinuation: Bone Neoplasm Malignant: 0 n (%)
  TEAE leading to permanent discontinuation: Cardiac Disorders: 0 n (%)
  TEAE leading to permanent discontinuation: Chest Discomfort: 1 (<1%) n (%)
  TEAE leading to permanent discontinuation: Chest Pain: 1 (<1%) n (%)
  TEAE leading to permanent discontinuation: Chest Wall Pain: 1 (<1%) n (%)
  TEAE leading to permanent discontinuation: Colitis Ischaemic: 1 (<1%) n (%)
  TEAE leading to permanent discontinuation: Constipation: 21 (8%) n (%)
  TEAE leading to permanent discontinuation: Cough: 1 (<1%) n (%)
  TEAE leading to permanent discontinuation: Dehydration: 0 n (%)
  TEAE leading to permanent discontinuation: Depression: 1 (<1%) n (%)
  TEAE leading to permanent discontinuation: Diarrhoea Aggravated: 1 (<1%) n (%)
  TEAE leading to permanent discontinuation: Diarrhoea Haemorrhagic: 1 (<1%) n (%)
  TEAE leading to permanent discontinuation: Diarrhoea NOS: 2 (<1%) n (%)
  TEAE leading to permanent discontinuation: Dizziness: 2 (<1%) n (%)
  TEAE leading to permanent discontinuation: Dyspepsia: 1 (<1%) n (%)
  TEAE leading to permanent discontinuation: Ear and Labyrinth Disorders: 0 n (%)
  TEAE leading to permanent discontinuation: Epigastric Discomfort: 1 (<1%) n (%)
  TEAE leading to permanent discontinuation: Eructation: 0 n (%)
  TEAE leading to permanent discontinuation: Eye Disorders: 1 (<1%) n (%)
  TEAE leading to permanent discontinuation: Faecal Abnormality NOS: 0 n (%)
  TEAE leading to permanent discontinuation: Faecal Impaction: 1 (<1%) n (%)
  TEAE leading to permanent discontinuation: Faecal Incontinence: 1 (<1%) n (%)
  TEAE leading to permanent discontinuation: Faeces Hard: 0 n (%)
  TEAE leading to permanent discontinuation: Fatigue: 1 (<1%) n (%)
  TEAE leading to permanent discontinuation: Fibroma NOS: 1 (<1%) n (%)
  TEAE leading to permanent discontinuation: Flatulence: 5 (2%) n (%)
  TEAE leading to permanent discontinuation: Gastric Irritation: 0 n (%)
  TEAE leading to permanent discontinuation: Gastrointestinal Disorders: 40 (14%) n (%)
  TEAE leading to permanent discontinuation: Gastrointestinal Motility Disorder NOS: 1 (<1%) n (%)
  TEAE leading to permanent discontinuation: General Disorders and Administration Site Conditions: 4 (1%) n (%)
  TEAE leading to permanent discontinuation: Haemorrhoidal Haemorrhage: 1 (<1%) n (%)
  TEAE leading to permanent discontinuation: Hallucination NOS: 1 (<1%) n (%)
  TEAE leading to permanent discontinuation: Hallucination, Auditory: 1 (<1%) n (%)
  TEAE leading to permanent discontinuation: Headache NOS: 3 (1%) n (%)
  TEAE leading to permanent discontinuation: Headache NOS Aggravated: 0 n (%)
  TEAE leading to permanent discontinuation: Heart Rate Increased: 0 n (%)
  TEAE leading to permanent discontinuation: Hepatobiliary Disorders: 0 n (%)
  TEAE leading to permanent discontinuation: Hepatosplenomegaly NOS: 0 n (%)
  TEAE leading to permanent discontinuation: Hiatus Hernia: 0 n (%)
  TEAE leading to permanent discontinuation: Investigations: 0 n (%)
  TEAE leading to permanent discontinuation: Irritable Bowel Syndrome Aggravated: 0 n (%)
  TEAE leading to permanent discontinuation: Lethargy: 1 (<1%) n (%)
  TEAE leading to permanent discontinuation: Metabolism and Nutrition Disorders: 0 n (%)
  TEAE leading to permanent discontinuation: Migraine NOS: 0 n (%)
  TEAE leading to permanent discontinuation: Muscle Cramps: 0 n (%)
  TEAE leading to permanent discontinuation: Musculoskeletal and Connective Tissue Disorders: 2 (<1%) n (%)
  TEAE leading to permanent discontinuation: Nausea: 0 n (%)
  TEAE leading to permanent discontinuation: Neoplasms Benign, Malignant and Unspecified (Incl Cysts and Polyps): 3 (1%) n (%)
  TEAE leading to permanent discontinuation: Nervous System Disorders: 4 (1%) n (%)
  TEAE leading to permanent discontinuation: Pregnancy, Puerperium and Perinatal Conditions: 0 n (%)
  TEAE leading to permanent discontinuation: Pruritus NOS: 0 n (%)
  TEAE leading to permanent discontinuation: Psychiatric Disorders: 1 (<1%) n (%)
  TEAE leading to permanent discontinuation: Psychotic Disorder NOS: 1 (<1%) n (%)
  TEAE leading to permanent discontinuation: Rash Macular: 1 (<1%) n (%)
  TEAE leading to permanent discontinuation: Rash NOS: 1 (<1%) n (%)
  TEAE leading to permanent discontinuation: Rectal Disorder NOS: 1 (<1%) n (%)
  TEAE leading to permanent discontinuation: Rectal Haemorrhage: 2 (<1%) n (%)
  TEAE leading to permanent discontinuation: Rectal Tenesmus: 1 (<1%) n (%)
  TEAE leading to permanent discontinuation: Renal and Urinary Disorders: 1 (<1%) n (%)
  TEAE leading to permanent discontinuation: Respiratory, Thoracic and Mediastinal Disorders: 1 (<1%) n (%)
  TEAE leading to permanent discontinuation: Skin and Subcutaneous Tissue Disorders: 3 (1%) n (%)
  TEAE leading to permanent discontinuation: Somnolence: 0 n (%)
  TEAE leading to permanent discontinuation: Stomach Discomfort: 1 (<1%) n (%)
  TEAE leading to permanent discontinuation: Suicidal Ideation: 1 (<1%) n (%)
